Where “and” joins values, the source holds several entries; their conditions need not be identical. Identical values can stand only once. Like-named read-outs stand apart in the source and are kept apart here. Marks after values point to notes of the source that are not given here.
Tests used:
[1] = test system: trophozoites of Entamoeba histolytica HM1:IMSS strain; experiment: Amoebicidal (antiproliferative) activity on trophozoite cultures, viability by trypan blue / CFDA-propidium iodide; format: cell-based; details: for increase in the amoebicidal activity: compared with the parent compound 3a
Method: Trophozoites of the E. histolytica HM1:IMSS strain were axenically grown by placing 1 × 10^5 live trophozoites in tubes with 3 mL of supplemented TYI-S33 medium. Amoebic trophozoite viability exposed to 1000, 100, 10, 1, 0.1, and 0.01 μM of each experimental compound was determined at 24, 48, and 72 h with trypan blue vital marker and confirmed with the fluorescent dyes carboxyfluorescein diacetate (CFDA) and propidium iodide. Either 100 μL of Trypan blue 0.4% or 1 μL of 5 μM CFDA (Invitrogen Molecular Probes, Inc., Eugene, OR, USA) and 1 μL of 1.5 μM propidium iodide were added to samples of 100 μL containing around 1 × 10^4 treated trophozoites, mixed, and incubated at room temperature for 15 min. The final solutions were mixed and incubated at room temperature for 15 min to perform the counting with an Olympus BX51 fluorescence microscope. The IC50 values were calculated by a multivariable regression using the amoebic viability curves for the tree times evaluated on GraphPad Prism 10.0.

[2] = RP-TLC, methanol/water 80:20; standard deviation in parentheses, three determinations
[3] = design: method as in doi:10.1016/j.jorganchem.2017.05.002; details: cited from earlier work
[4] = cited from earlier work
amoeba trophozoites = test system: amoeba trophozoites; design: method as in PMID 27863300; details: cited from earlier work
[5] = Electrochemical measurements (voltammetry) of redox potentials in acetonitrile; format: physicochemical; details: TBATFB 0.1 M; for E(I) half-wave redox potential / E(II) half-wave redox potential: vs. Fc/Fc+
Method: Two oxidation (Ia, IIa) and two reduction (Ic, IIc) processes with half-wave potential values E(I) = −0.022 V and E(II) = 0.164 V were observed. The electronic communication between both Ferrocene units was evaluated using the ΔE(II–I) to calculate the comproportionation constant (Kcom). According to the Kcom value 1563, the mixed-valence compound is a Class II compound in the Robin–Day classification with slight electronic delocalization between the two redox centers. This slight communication between iron ions allows the identification of two independent and sequential redox processes. It confirms the absence of chemical or adsorption processes associated with redox transformation (Figure 1b). Similar results were found for compound 3e (Table 1). The relationship between redox potential values found for compounds 3a–e follows the equation EII(V) = 1.01EI(V) + 0.1897 (R^2 = 0.9894, F = 280.7, Figure 2a).
Individual diferrocenylvinyloxazolines 3a–e (Figure 6) were isolated using Al2O3 column chromatography (activity grade III, elution with hexane-ether 4:1). In the solid state, fine crystalline substances of orange color represent them. The E and Z […] could be separated by a chromatographic column. In this work, only Z-enantiomers were employed, as described in the compound characterization. The structures of compounds 3a–e were determined based on mass spectrometry, FT-IR, ^1H, and ^13C NMR spectroscopy, and elemental analysis. UV–vis spectra of 3a–e were acquired using acetonitrile solutions at different concentrations in a Genesis 30 Spectrophotometer (Thermo Scientific, Waltham, MA, USA) from 325 to 1100 nm. Electrochemical measurements for compounds 3c and 3e were performed using conditions reported previously. Briefly, acetonitrile solutions at different concentrations of the compound with tetrabutylammonium tetrafluoroborate (TBATFB) 0.1M as a supporting electrolyte, platinum disk as a working electrode, and Ag/AgNO3 as a reference in a potentiostat/galvanostat (EG&G PAR 273). The scan rate was 0.1 V/s, from open circuit potential to positive direction. Bubbling N2 deoxygenated the working solution before each measurement.

[6] = E. histolytica HM1:IMSS trophozoites, viability curves at 24, 48 and 72 h, read-out: IC50
[7] = logarithmic units of IC50 in µM

Row | Molecule | IC50 [1, 6] [µM] | −log (1/IC50) [1, 7] | logP [2] | E(I) redox potential ([3]; acetonitrile, vs. Fc/Fc+) | E(II) redox potential ([3]; acetonitrile, vs. Fc/Fc+) | E(I) redox potential [3] [mV] | E(II) redox potential [3] [mV] | increase in the amoebicidal activity [1] | further results
1 | 2-(Z-2,3-diferrocenylvinyl)-4,5-dihydrooxazole [Compound 3a] | 1000 ± 46 | 3 | 4.42 (0.2) | 0.116 V and 0.116 ^a V | 0.305 V and 0.305 ^a V | 116 | 305 |  | 
2 | C(=C(/C1=NCCS1)[c-]1cccc1)/[c-]1cccc1.[Fe+2].[Fe+2].c1cc[cH-]c1.c1cc[cH-]c1 [2-(Z-1,2-diferrocenylvinyl)-4,5-dihydro-1,3-thiazole] |  |  |  |  |  |  |  |  | E(I) redox potential [4]: 0.251 V; E(II) redox potential [4]: 0.408 V
3 | C(=C(/C1=NCCN1)[c-]1cccc1)/[c-]1cccc1.[Fe+2].[Fe+2].c1cc[cH-]c1.c1cc[cH-]c1 [2-(Z-1,2-diferrocenylvinyl)-imidazoline] |  |  |  |  |  |  |  |  | E(I) redox potential [4]: 0.250 V; E(II) redox potential [4]: 0.437 V
4 | COc1cc2c(c(OC)c1OC)CCC1C2=Nc2ccccc2SC1[c-]1cccc1.[Fe+2].c1cc[cH-]c1 (centres unmarked) [(2,3,4-trimethoxy-5,6,6a,7-tetrahydrobenzo[b]naphtho [1,2-e][1,4]thiazepin-7-yl)ferrocene] |  |  |  |  |  |  |  |  | IC50 (amoeba trophozoites): 12.6 µM; redox potential [4]: +0.042 V
5 | [Fe+2].c1cc[cH-]c1.c1ccc2c(c1)CCC1C2=Nc2ccccc2SC1[c-]1cccc1 (centres unmarked) [(5,6,6a,7-tetrahydrobenzo[b]naphtho [1,2-e][1,4]thiazepin-7-yl)ferrocene] |  |  |  |  |  |  |  |  | IC50 (amoeba trophozoites): 7.5 µM; redox potential [4]: +0.005 V
6 | CC1COC(/C(=C\[c-]2cccc2)[c-]2cccc2)=N1.[Fe+2].[Fe+2].c1cc[cH-]c1.c1cc[cH-]c1 (centres unmarked) [Compound 3b, 2-(Z-1,2-diferrocenylvinyl)-4-methyl-4,5-dihydrooxazole] | 100 ± 9 | 2 | 4.76 (0.1) | −0.019 ^a V | 0.182 ^a V | −19 | 182 | 10 fold | 
7 | CC(C)C1COC(/C(=C\[c-]2cccc2)[c-]2cccc2)=N1.[Fe+2].[Fe+2].c1cc[cH-]c1.c1cc[cH-]c1 (centres unmarked) [Compound 3c, 2-(Z-1,2-diferrocenylvinyl)-4-isopropyl-4,5-dihydrooxazole] | 1890 |  | 5.48 (0.1) |  |  |  |  |  | E(I) redox potential [5]: −22 mV; E(II) redox potential [5]: 167 mV; E(I) half-wave redox potential [5]: −0.022 V; E(II) half-wave redox potential [5]: 0.167 V
8 | C(=C(/C1=NC(c2ccccc2)CO1)[c-]1cccc1)/[c-]1cccc1.[Fe+2].[Fe+2].c1cc[cH-]c1.c1cc[cH-]c1 (centres unmarked) [Compound 3d, 2-(Z-1,2-diferrocenylvinyl)-4-phenyl-4,5-dihydrooxazole] | 23 ± 3 | 1.36 | 5.62 (0.2) | −0.045 ^a V | 0.135 ^a V | −45 | 135 | more than 40 fold | 
9 | C(=C(/C1=NC(Cc2ccccc2)CO1)[c-]1cccc1)/[c-]1cccc1.[Fe+2].[Fe+2].c1cc[cH-]c1.c1cc[cH-]c1 (centres unmarked) [Compound 3e, 2-(Z-1,2-diferrocenylvinyl)-4-benzyl-4,5-dihydrooxazole] | 385 ± 11 | 2.58 | 6.1 (0.09) |  |  |  |  | 2.5 fold | E(I) redox potential [5]: −65 mV; E(II) redox potential [5]: 124 mV; E(I) half-wave redox potential [5]: −0.065 V; E(II) half-wave redox potential [5]: 0.124 V
10 | Cc1ncc([N+](=O)[O-])n1CCO [Metronidazole, reference compound] |  |  |  |  |  |  |  |  | IC50 ([1]; Entamoeba histolytica, E. histolytica HM1:IMSS trophozoites, viability curves at 24, 48 and 72 h, read-out: IC50): 7 ± 0.9 µM; IC50 ([1]; Entamoeba histolytica, logarithmic units of IC50 in µM, read-out: −log (1/IC50) (converted)): 6.92 µM
